Activity calls are given as the source filed them. The rule behind the calls is not given here.
Tests used:
[1] = system: NCI-H146; assay: CellTiter-Glo Luminescent Cell Viability Assay (BCL-XL dependent cell line H146); type: functional, cell-based; details: Homo sapiens
[2] = target: AP2-associated protein kinase 1 (Homo sapiens) (UniProt Q2M2I8); details: Compound concentration 1000.0 nM
[3] = system: Tyrosine-protein kinase ABL1 (Homo sapiens), P00519 [F317I]; details: Compound concentration 1000.0 nM
[4] = target: 5'-AMP-activated protein kinase catalytic subunit alpha-2 (Homo sapiens) (UniProt P54646); details: Compound concentration 1000.0 nM
[5] = target: Bone morphogenetic protein receptor type-1B (Homo sapiens) (UniProt O00238); details: Compound concentration 1000.0 nM
[6] = target: Bone morphogenetic protein receptor type-2 (Homo sapiens) (UniProt Q13873); details: Compound concentration 1000.0 nM
[7] = target: Serine/threonine-protein kinase B-raf (Homo sapiens) (UniProt P15056); details: Compound concentration 1000.0 nM
[8] = target: Tyrosine-protein kinase BTK (Homo sapiens) (UniProt Q06187); details: Compound concentration 1000.0 nM
[9] = target: Calcium/calmodulin-dependent protein kinase type 1G (Homo sapiens) (UniProt Q96NX5); details: Compound concentration 1000.0 nM
[10] = target: Calcium/calmodulin-dependent protein kinase type II subunit gamma (Homo sapiens) (UniProt Q13555); details: Compound concentration 1000.0 nM
[11] = target: Cyclin-dependent kinase 11B (Homo sapiens) (UniProt P21127); details: Compound concentration 1000.0 nM
[12] = target: Cyclin-dependent kinase 19 (Homo sapiens) (UniProt Q9BWU1); details: Compound concentration 1000.0 nM
[13] = target: Cyclin-dependent kinase 3 (Homo sapiens) (UniProt Q00526); details: Compound concentration 1000.0 nM
[14] = target: Cyclin-dependent kinase 5 (Homo sapiens) (UniProt Q00535); details: Compound concentration 1000.0 nM
[15] = target: Cyclin-dependent kinase 9 (Homo sapiens) (UniProt P50750); details: Compound concentration 1000.0 nM
[16] = target: Cyclin-dependent kinase-like 2 (Homo sapiens) (UniProt Q92772); details: Compound concentration 1000.0 nM
[17] = target: Citron Rho-interacting kinase (Homo sapiens) (UniProt O14578); details: Compound concentration 1000.0 nM
[18] = target: Casein kinase I isoform delta (Homo sapiens) (UniProt P48730); details: Compound concentration 1000.0 nM
[19] = target: Death-associated protein kinase 2 (Homo sapiens) (UniProt Q9UIK4); details: Compound concentration 1000.0 nM
[20] = target: Dual specificity tyrosine-phosphorylation-regulated kinase 2 (Homo sapiens) (UniProt Q92630); details: Compound concentration 1000.0 nM
[21] = target: Fibroblast growth factor receptor 3 (Homo sapiens) (UniProt P22607); details: Compound concentration 1000.0 nM
[22] = target: Inhibitor of nuclear factor kappa-B kinase subunit beta (Homo sapiens) (UniProt O14920); details: Compound concentration 1000.0 nM
[23] = target: Inhibitor of nuclear factor kappa-B kinase subunit epsilon (Homo sapiens) (UniProt Q14164); details: Compound concentration 1000.0 nM
[24] = target: Mitogen-activated protein kinase 8 (Homo sapiens) (UniProt P45983); details: Compound concentration 1000.0 nM
[25] = target: Mitogen-activated protein kinase 10 (Homo sapiens) (UniProt P53779); details: Compound concentration 1000.0 nM
[26] = target: Serine/threonine-protein kinase LATS1 (Homo sapiens) (UniProt O95835); details: Compound concentration 1000.0 nM
[27] = target: Leukocyte tyrosine kinase receptor (Homo sapiens) (UniProt P29376); details: Compound concentration 1000.0 nM
[28] = target: Serine/threonine-protein kinase MARK1 (Homo sapiens) (UniProt Q9P0L2); details: Compound concentration 1000.0 nM
[29] = target: Myosin-IIIb (Homo sapiens) (UniProt Q8WXR4); details: Compound concentration 1000.0 nM
[30] = target: Serine/threonine-protein kinase 38 (Homo sapiens) (UniProt Q15208); details: Compound concentration 1000.0 nM
[31] = target: 3-phosphoinositide-dependent protein kinase 1 (Homo sapiens) (UniProt O15530); details: Compound concentration 1000.0 nM
[32] = system: Phosphatidylinositol 4,5-bisphosphate 3-kinase catalytic subunit alpha isoform (Homo sapiens), P42336 [E545A]; details: Compound concentration 1000.0 nM
[33] = target: Phosphatidylinositol 4,5-bisphosphate 3-kinase catalytic subunit delta isoform (Homo sapiens) (UniProt O00329); details: Compound concentration 1000.0 nM
[34] = target: Phosphatidylinositol 4,5-bisphosphate 3-kinase catalytic subunit gamma isoform (Homo sapiens) (UniProt P48736); details: Compound concentration 1000.0 nM
[35] = target: Phosphatidylinositol 4-phosphate 5-kinase type-1 alpha (Homo sapiens) (UniProt Q99755); details: Compound concentration 1000.0 nM
[36] = target: Protein kinase C delta type (Homo sapiens) (UniProt Q05655); details: Compound concentration 1000.0 nM
[37] = target: Serine/threonine-protein kinase SIK2 (Homo sapiens) (UniProt Q9H0K1); details: Compound concentration 1000.0 nM
[38] = target: SRSF protein kinase 2 (Homo sapiens) (UniProt P78362); details: Compound concentration 1000.0 nM
[39] = target: Dual specificity protein kinase TTK (Homo sapiens) (UniProt P33981); details: Compound concentration 1000.0 nM
[40] = target: Serine/threonine-protein kinase WNK4 (Homo sapiens) (UniProt Q96J92); details: Compound concentration 1000.0 nM
[41] = target: 5-hydroxytryptamine receptor 1B (Homo sapiens) (UniProt P28222); details: Compound concentration 10.0 uM
[42] = target: GABA-A receptor; anion channel (Rattus norvegicus) (UniProt O09028+P15431+P18506+P18508+P19969+P20236+P23574+P23576+P28471+P28473+P30191+P62813+P63079+P63138+Q91ZM7+Q9ES14); details: Compound concentration 10.0 uM
[43] = target: Histamine H4 receptor (Homo sapiens) (UniProt Q9H3N8); details: Compound concentration 10.0 uM
[44] = organism: Rattus norvegicus; details: Compound concentration 10.0 uM

Sequence of Cyclin-dependent kinase 5 (Homo sapiens) (Q00535 whole entry, looked up): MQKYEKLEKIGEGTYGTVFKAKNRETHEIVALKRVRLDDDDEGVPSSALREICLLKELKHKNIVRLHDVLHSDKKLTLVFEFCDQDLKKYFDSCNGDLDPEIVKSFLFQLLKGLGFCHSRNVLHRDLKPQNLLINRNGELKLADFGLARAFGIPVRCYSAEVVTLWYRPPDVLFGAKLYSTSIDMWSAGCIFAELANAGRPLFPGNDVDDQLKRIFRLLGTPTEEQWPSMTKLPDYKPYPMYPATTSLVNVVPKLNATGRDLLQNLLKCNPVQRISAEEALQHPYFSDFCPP
Sequence of 5'-AMP-activated protein kinase catalytic subunit alpha-2 (Homo sapiens) (P54646 whole entry, looked up): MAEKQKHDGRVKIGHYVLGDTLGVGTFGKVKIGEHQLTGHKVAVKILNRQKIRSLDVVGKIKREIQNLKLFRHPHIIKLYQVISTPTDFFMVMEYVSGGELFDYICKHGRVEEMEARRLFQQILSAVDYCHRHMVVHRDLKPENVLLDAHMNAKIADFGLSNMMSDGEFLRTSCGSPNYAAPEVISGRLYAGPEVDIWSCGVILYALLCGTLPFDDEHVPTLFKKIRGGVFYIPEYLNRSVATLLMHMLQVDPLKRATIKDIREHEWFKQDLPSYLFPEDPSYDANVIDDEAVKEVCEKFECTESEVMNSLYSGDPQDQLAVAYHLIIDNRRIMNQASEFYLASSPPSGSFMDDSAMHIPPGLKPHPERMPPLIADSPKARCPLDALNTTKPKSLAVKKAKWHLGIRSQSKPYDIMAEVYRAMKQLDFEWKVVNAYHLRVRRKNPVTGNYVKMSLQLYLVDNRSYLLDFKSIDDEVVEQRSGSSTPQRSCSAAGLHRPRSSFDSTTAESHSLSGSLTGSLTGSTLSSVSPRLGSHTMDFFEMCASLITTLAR
Sequence of Phosphatidylinositol 4,5-bisphosphate 3-kinase catalytic subunit delta isoform (Homo sapiens) (O00329 whole entry, canonical isoform): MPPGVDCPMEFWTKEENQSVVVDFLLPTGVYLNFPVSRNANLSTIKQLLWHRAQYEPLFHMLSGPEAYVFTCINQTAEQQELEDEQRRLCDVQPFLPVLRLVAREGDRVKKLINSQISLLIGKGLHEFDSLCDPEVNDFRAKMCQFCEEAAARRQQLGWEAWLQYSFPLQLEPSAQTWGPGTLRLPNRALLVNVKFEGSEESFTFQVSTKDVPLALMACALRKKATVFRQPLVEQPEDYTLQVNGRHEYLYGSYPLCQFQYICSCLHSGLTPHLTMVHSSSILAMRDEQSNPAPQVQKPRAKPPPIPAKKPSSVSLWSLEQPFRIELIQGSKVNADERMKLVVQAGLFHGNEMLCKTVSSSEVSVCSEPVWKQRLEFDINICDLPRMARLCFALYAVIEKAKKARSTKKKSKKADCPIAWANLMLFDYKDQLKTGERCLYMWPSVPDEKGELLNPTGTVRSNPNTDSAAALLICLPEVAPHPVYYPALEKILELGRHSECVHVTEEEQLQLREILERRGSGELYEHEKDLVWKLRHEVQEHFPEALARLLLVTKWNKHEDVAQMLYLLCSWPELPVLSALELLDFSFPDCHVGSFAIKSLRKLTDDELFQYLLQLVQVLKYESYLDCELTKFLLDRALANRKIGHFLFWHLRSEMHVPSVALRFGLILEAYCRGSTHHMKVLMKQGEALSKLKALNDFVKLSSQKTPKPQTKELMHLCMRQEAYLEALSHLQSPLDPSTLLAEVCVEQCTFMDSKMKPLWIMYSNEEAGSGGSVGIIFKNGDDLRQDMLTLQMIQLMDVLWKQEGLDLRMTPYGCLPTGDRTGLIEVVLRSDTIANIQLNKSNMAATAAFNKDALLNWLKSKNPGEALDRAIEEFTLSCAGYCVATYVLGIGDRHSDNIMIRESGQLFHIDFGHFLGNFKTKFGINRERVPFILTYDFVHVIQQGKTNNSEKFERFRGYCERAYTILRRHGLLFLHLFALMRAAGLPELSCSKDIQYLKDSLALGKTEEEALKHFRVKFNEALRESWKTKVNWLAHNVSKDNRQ
Sequence of Inhibitor of nuclear factor kappa-B kinase subunit epsilon (Homo sapiens) (Q14164 whole entry): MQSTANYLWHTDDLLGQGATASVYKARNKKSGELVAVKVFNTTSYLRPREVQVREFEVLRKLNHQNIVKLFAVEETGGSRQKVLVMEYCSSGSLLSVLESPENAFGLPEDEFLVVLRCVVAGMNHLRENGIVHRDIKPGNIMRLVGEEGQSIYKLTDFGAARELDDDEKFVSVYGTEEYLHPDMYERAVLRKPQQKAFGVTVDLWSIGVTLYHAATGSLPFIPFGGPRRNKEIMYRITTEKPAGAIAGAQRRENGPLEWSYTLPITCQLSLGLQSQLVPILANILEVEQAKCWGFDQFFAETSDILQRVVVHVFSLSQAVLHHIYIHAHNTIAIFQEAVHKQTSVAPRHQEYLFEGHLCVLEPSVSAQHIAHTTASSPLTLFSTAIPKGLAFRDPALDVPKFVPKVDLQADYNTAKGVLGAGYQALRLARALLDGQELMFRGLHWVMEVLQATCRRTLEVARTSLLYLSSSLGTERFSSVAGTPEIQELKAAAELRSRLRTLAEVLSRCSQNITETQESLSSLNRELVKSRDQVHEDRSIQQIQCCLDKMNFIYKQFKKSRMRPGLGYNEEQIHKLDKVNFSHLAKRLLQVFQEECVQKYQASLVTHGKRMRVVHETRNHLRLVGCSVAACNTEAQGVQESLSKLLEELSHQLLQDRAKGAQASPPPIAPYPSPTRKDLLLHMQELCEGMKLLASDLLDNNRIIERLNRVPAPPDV
Sequence of Bone morphogenetic protein receptor type-1B (Homo sapiens) (O00238 whole entry): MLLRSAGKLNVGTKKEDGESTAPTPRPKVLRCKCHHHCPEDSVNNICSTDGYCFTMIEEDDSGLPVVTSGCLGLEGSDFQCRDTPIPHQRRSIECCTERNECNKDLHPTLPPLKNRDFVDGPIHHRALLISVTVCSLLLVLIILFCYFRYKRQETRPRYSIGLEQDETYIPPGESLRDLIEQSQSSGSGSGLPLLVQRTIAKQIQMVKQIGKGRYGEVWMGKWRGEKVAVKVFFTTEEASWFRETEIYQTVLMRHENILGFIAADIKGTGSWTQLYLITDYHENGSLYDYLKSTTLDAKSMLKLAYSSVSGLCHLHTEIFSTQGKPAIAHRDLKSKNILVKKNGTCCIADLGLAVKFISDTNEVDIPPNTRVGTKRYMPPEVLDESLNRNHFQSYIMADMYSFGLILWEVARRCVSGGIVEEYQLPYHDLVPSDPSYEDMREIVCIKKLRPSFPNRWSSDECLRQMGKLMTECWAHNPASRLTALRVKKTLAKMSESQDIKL
Sequence of Casein kinase I isoform delta (Homo sapiens) (P48730 whole entry, looked up, canonical isoform): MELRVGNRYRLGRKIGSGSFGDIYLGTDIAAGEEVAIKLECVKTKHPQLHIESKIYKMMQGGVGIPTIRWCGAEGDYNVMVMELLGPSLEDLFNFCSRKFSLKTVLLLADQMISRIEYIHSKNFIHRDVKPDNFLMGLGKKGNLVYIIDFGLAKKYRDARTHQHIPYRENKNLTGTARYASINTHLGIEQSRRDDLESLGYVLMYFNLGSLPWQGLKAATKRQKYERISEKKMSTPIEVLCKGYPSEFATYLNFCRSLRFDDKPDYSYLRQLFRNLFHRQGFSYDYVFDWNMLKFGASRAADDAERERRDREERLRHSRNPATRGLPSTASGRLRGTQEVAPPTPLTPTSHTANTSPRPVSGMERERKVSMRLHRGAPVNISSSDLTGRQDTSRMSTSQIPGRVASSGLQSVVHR
Sequence of Cyclin-dependent kinase-like 2 (Homo sapiens) (Q92772 whole entry): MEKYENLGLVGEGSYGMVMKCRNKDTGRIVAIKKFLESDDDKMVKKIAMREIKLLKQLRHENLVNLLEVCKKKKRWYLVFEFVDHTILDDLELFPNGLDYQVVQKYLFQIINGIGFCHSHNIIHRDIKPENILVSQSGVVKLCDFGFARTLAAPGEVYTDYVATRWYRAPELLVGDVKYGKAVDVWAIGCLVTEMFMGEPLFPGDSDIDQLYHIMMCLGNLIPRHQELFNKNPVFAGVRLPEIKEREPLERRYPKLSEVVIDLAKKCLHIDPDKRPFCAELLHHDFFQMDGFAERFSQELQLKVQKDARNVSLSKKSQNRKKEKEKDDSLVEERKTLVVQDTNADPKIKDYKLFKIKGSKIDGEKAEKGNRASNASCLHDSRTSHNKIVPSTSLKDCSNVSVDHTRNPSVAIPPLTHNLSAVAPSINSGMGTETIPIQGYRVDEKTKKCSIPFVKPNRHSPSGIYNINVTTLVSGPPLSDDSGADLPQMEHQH
Sequence of Cyclin-dependent kinase 3 (Homo sapiens) (Q00526 whole entry, looked up): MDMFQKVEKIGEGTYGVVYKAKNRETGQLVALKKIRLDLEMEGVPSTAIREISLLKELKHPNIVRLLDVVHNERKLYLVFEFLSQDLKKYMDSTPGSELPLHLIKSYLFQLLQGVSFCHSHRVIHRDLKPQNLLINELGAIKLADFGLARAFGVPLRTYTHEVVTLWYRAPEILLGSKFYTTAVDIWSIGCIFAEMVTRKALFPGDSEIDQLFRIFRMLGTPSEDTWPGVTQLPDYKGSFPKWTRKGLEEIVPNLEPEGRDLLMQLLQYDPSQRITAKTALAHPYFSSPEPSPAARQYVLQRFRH
Sequence of Phosphatidylinositol 4-phosphate 5-kinase type-1 alpha (Homo sapiens) (Q99755 whole entry): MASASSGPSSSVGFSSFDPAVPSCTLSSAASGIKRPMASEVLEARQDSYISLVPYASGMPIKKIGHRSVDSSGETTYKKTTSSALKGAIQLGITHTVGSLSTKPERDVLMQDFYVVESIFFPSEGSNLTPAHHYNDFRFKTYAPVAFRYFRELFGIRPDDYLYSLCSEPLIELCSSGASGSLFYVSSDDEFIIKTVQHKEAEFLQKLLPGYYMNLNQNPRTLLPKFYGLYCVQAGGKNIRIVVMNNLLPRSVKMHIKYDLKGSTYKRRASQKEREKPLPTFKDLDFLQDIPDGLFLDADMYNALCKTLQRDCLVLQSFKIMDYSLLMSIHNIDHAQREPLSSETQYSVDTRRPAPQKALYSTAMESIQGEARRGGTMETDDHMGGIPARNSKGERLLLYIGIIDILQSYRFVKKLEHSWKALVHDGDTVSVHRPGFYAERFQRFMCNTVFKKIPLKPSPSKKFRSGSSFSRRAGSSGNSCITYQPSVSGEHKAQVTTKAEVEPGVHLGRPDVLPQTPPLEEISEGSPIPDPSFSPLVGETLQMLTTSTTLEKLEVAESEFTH

CN(C)CC#Cc1ccc(OCCCc2sc(N3CCc4cccc(C(=O)Nc5nc6ccccc6s5)c4C3)nc2C(=O)O)c(F)c1 [A-1155463]
EC50 [1]: 0.07 µM (active) | residual activity [2]: 91% | residual activity [3]: 100% | residual activity [4]: 99% | residual activity [5]: 84% | residual activity [6]: 100% | residual activity [7]: 100% | residual activity [8]: 96% | residual activity [9]: 94% | residual activity [10]: 62% | residual activity [11]: 93% | residual activity [12]: 95% | residual activity [13]: 68% | residual activity [14]: 100% | residual activity [15]: 94% | residual activity [16]: 98% | residual activity [17]: 77% | residual activity [18]: 95% | residual activity [19]: 90% | residual activity [20]: 100% | residual activity [21]: 98% | residual activity [22]: 72% | residual activity [23]: 100% | residual activity [24]: 62% | residual activity [25]: 71% | residual activity [26]: 76% | residual activity [27]: 100% | residual activity [28]: 93% | residual activity [29]: 96% | residual activity [30]: 76% | residual activity [31]: 100% | residual activity [32]: 100% | residual activity [33]: 100% | residual activity [34]: 100% | residual activity [35]: 100% | residual activity [36]: 100% | residual activity [37]: 96% | residual activity [38]: 100% | residual activity [39]: 92% | residual activity [40]: 81% | inhibition [41]: 20.2% | inhibition [42]: 11.3% | inhibition [43]: 6.5% | inhibition [44]: 61.1%
